In patent publication US7323044B1, “Biocidal compositions” (Troy Corporation, priority 2007, dated 2008):

What was measured:
[1] = Amount of castor oil based co-solvent required to keep OBPA in solution with plasticizer; type: physicochemical; conditions: with commercial plasticizers (e.g., diisodecyl phthalate); about −13° C. to about 30° C.
Procedure: As a general rule, OBPA solutions which are transported or stored at outdoor conditions, without the benefit of dedicated heating or cooling equipment, may be exposed to temperatures in the range of about −13° C. to about 30° C. […] For OBPA solutions which will be transported or stored at outdoor conditions, we prefer that the weight ratio of OBPA to the solvent is about 0.12 or less in the present invention, more preferably in the range of about 0.083 to about 0.12, and most preferably about 0.10. For OBPA solutions which will be temperature-controlled during shipment and storage, the invention can be successfully practiced over a broader range of OBPA to solvent weight ratio.

[2] = background statement; cited from earlier work

c1ccc2c(c1)Oc1ccccc1[As]2O[As]1c2ccccc2Oc2ccccc21 [OBPA, 10,10′-oxybisphenoxarsine]
Castor oil based co-solvent required to keep 1 gram of OBPA in solution [1]: at least 8 grams
Solubility of OBPA in plasticizers currently favored for manufacturing flexible PVC [2]: less than 1 wt %
